Source: patent US9181234B2, “Antibacterial compounds” (priority 2010, dated 2015)
Values after ≈ are worked out from the molar mass of the structure shown.

Columns and labels:
[1] = tested on: Staphylococcus aureus (Isolate ID ATCC 29213); assay: Antibacterial activity, MIC, S. aureus; assay type: cell-based; details: broth microdilution or agar dilution; for MIC: Staphylococcus aureus, ATCC29213, Gram positive strain
How it was run: (§1)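 Compounds are serially diluted in broth or agar as CLSI specifies for aerobically growing bacteria, and the MIC is then recorded for each strain.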

[2] = tested on: Streptococcus pyogenes (Isolate ID ATCC 51339); assay: Antibacterial activity, MIC, S. pyogenes; assay type: cell-based; details: broth microdilution or agar dilution; for MIC: Streptococcus pyogenes, ATCC51339, Gram positive strain
How it was run: as §1

[3] = physchem; details: for solubility at 24 h: kinetic from dmso stock
How it was run: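 DMSO doubling dilutions were diluted twenty-fold into 100 mM citrate (pH 4), PBS (pH 7.4) or carbonate-bicarbonate (pH 9). After 24 h equilibration at room temperature, absorbance was read at 620 nm. The reported value is the highest concentration without measurable precipitate.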

[4] = tested on: Haemophilus influenzae (Isolate ID ATCC 49247); assay: Antibacterial activity, MIC, H. influenzae; assay type: cell-based; details: Gram negative strain, broth microdilution or agar dilution; for MIC: Haemophilus influenzae, ATCC49247
How it was run: as §1

[5] = tested on: Enterococcus faecalis (Isolate ID ATCC 29212); assay: Antibacterial activity, MIC, E. faecalis; assay type: cell-based; details: Gram positive strain, broth microdilution or agar dilution; for MIC: Enterococcus faecalis, ATCC29212
How it was run: as §1

[6] = pH 7.4, aqueous buffer, Solubility (pH 7.4)
[7] = pH 7.4, aqueous buffer, Solubility Range
[8] = pH 9, aqueous buffer, Max Solubility
[9] = pH 9, aqueous buffer, Solubility Range (maximum solubility)
[10] = pH 7.4, aqueous buffer, Max Solubility
[11] = pH 7.4, aqueous buffer, Solubility Range (maximum solubility)

Compound	MIC [1]	MIC [2]	solubility at 24 h [3, 6]	solubility at 24 h [3, 7]	solubility at 24 h [3, 8]	solubility at 24 h [3, 9]	MIC [4]	MIC [5]	solubility at 24 h [3, 10]	solubility at 24 h [3, 11]	solubility at 24 h ([3]; pH 4, aqueous buffer, Max Solubility)	solubility at 24 h ([3]; pH 4, aqueous buffer, Solubility Range (maximum solubility))	Antibacterial Activity (MIC) S. aureus (ATCC 29213) ([1]; Gram positive strain)	Antibacterial Activity (MIC) S. pyogenes (ATCC 51339) ([2]; Gram positive strain)	Max Solubility ([3]; pH 7.4)	Solubility (pH 7.4) ([3]; pH 7.4)	Antibacterial Activity (MIC) H. influenzae (ATCC 49247) [4]	Antibacterial Activity (MIC) E. faecalis (ATCC 29212) [5]
CCNC(=O)Nc1nc2cc(-c3cnc(N4CCC(C)(C(=O)O)CC4)nc3)cc(-c3ccc(CC#N)cn3)c2s1 [Compound 82]	≤ 0.25 µg/mL	≤ 0.25 µg/mL	200 µg/mL (≈ 359 µM)	12.5 to 400 µg/mL (≈ 22.5 to 719 µM)	≥ 800 µg/mL	> 800 µg/mL	0.25 to 1 µg/mL (≈ 0.449 to 1.8 µM)	≤ 0.25 µg/mL	–	–	–	–	–	–	–	–	–	–
CCNC(=O)Nc1nc2cc(-c3cnc(N4CCC(C)(C(=O)O)CC4)nc3)cc(-c3cc(C)c(F)cn3)c2s1 [Compound 85]	≤ 0.25 µg/mL	≤ 0.25 µg/mL	200 µg/mL (≈ 364 µM)	12.5 to 400 µg/mL (≈ 22.7 to 728 µM)	≥ 800 µg/mL	> 800 µg/mL	0.25 to 1 µg/mL (≈ 0.455 to 1.82 µM)	≤ 0.25 µg/mL	–	–	–	–	–	–	–	–	–	–
CCNC(=O)Nc1nc2cc(-c3cnc(N4CCC(C)(C(=O)O)CC4)nc3)cc(-c3nccnc3OC)c2s1 [Compound 86]	≤ 0.25 µg/mL	≤ 0.25 µg/mL	≥ 800 µg/mL	> 800 µg/mL	–	–	1 to 16 µg/mL (≈ 1.82 to 29.2 µM)	≤ 0.25 µg/mL	≥ 800 µg/mL	> 800 µg/mL	–	–	–	–	–	–	–	–
CCNC(=O)Nc1nc2cc(-c3cnc(N4CCC(C)(C(=O)O)CC4)nc3)cc(-c3ccncc3)c2s1 [Compound 89]	0.25 to 1 µg/mL (≈ 0.483 to 1.93 µM)	0.25 to 1 µg/mL (≈ 0.483 to 1.93 µM)	≥ 800 µg/mL	> 800 µg/mL	–	–	1 to 16 µg/mL (≈ 1.93 to 30.9 µM)	≤ 0.25 µg/mL	≥ 800 µg/mL	> 800 µg/mL	–	–	–	–	–	–	–	–
CCNC(=O)Nc1nc2cc(-c3cnc(N4CCC(C)(C(=O)O)CC4)nc3)cc(-c3nccc(OC)c3C#N)c2s1 [Compound 90]	≤ 0.25 µg/mL	≤ 0.25 µg/mL	100 µg/mL (≈ 175 µM)	12.5 to 400 µg/mL (≈ 21.8 to 699 µM)	–	–	0.25 to 1 µg/mL (≈ 0.437 to 1.75 µM)	≤ 0.25 µg/mL	100 µg/mL (≈ 175 µM)	12.5 to 400 µg/mL (≈ 21.8 to 699 µM)	–	–	–	–	–	–	–	–
CCNC(=O)Nc1nc2cc(-c3cnc(N4CCC(CC)(C(=O)O)CC4)nc3)cc(-c3cnccn3)c2s1 [Compound 99]	≤ 0.25 µg/mL	≤ 0.25 µg/mL	≥ 800 µg/mL	> 800 µg/mL	–	–	1 to 16 µg/mL (≈ 1.88 to 30 µM)	≤ 0.25 µg/mL	–	–	–	–	–	–	–	–	–	–
CCNC(=O)Nc1nc2cc(-c3cnc(N4CCC(CC)(C(=O)O)CC4)nc3)cc(-c3cc(C#N)ccn3)c2s1 [Compound 100]	≤ 0.25 µg/mL	≤ 0.25 µg/mL	12.5 µg/mL (≈ 22.5 µM)	12.5 to 400 µg/mL (≈ 22.5 to 719 µM)	–	–	1 to 16 µg/mL (≈ 1.8 to 28.7 µM)	≤ 0.25 µg/mL	–	–	–	–	–	–	–	–	–	–
CCNC(=O)Nc1nc2cc(-c3cnc(N4CCC(CC)(C(=O)O)CC4)nc3)cc(-c3ccc(C#N)cn3)c2s1 [Compound 105]	≤ 0.25 µg/mL	≤ 0.25 µg/mL	≥ 800 µg/mL	> 800 µg/mL	–	–	1 to 16 µg/mL (≈ 1.8 to 28.7 µM)	≤ 0.25 µg/mL	≥ 800 µg/mL	> 800 µg/mL	–	–	–	–	–	–	–	–

Continued, values first:

MIC [1]	MIC [2]	solubility at 24 h [3, 6]	solubility at 24 h [3, 7]	solubility at 24 h [3, 8]	solubility at 24 h [3, 9]	MIC [4]	MIC [5]	solubility at 24 h [3, 10]	solubility at 24 h [3, 11]	solubility at 24 h ([3]; pH 4, aqueous buffer, Max Solubility)	solubility at 24 h ([3]; pH 4, aqueous buffer, Solubility Range (maximum solubility))	Antibacterial Activity (MIC) S. aureus (ATCC 29213) ([1]; Gram positive strain)	Antibacterial Activity (MIC) S. pyogenes (ATCC 51339) ([2]; Gram positive strain)	Max Solubility ([3]; pH 7.4)	Solubility (pH 7.4) ([3]; pH 7.4)	Antibacterial Activity (MIC) H. influenzae (ATCC 49247) [4]	Antibacterial Activity (MIC) E. faecalis (ATCC 29212) [5]	Compound
≤ 0.25 µg/mL	≤ 0.25 µg/mL	200 µg/mL (≈ 365 µM)	12.5 to 400 µg/mL (≈ 22.8 to 729 µM)	400 µg/mL (≈ 729 µM)	400 to 800 µg/mL (≈ 729 to 1460 µM)	1 to 16 µg/mL (≈ 1.82 to 29.2 µM)	≤ 0.25 µg/mL	–	–	–	–	–	–	–	–	–	–	CCNC(=O)Nc1nc2cc(-c3cnc(N4CCC(C)(C(=O)O)CC4)nc3)cc(-c3cncc(OC)n3)c2s1 [Compound 81]
≤ 0.25 µg/mL	≤ 0.25 µg/mL	200 µg/mL (≈ 366 µM)	12.5 to 400 µg/mL (≈ 22.9 to 732 µM)	≥ 800 µg/mL	> 800 µg/mL	0.25 to 1 µg/mL (≈ 0.457 to 1.83 µM)	≤ 0.25 µg/mL	–	–	–	–	–	–	–	–	–	–	CCNC(=O)Nc1nc2cc(-c3cnc(N4CCC(C)(C(=O)O)CC4)nc3)cc(-c3cnc(CC)cn3)c2s1 [Compound 83]
1 to 16 µg/mL (≈ 1.88 to 30 µM)	0.25 to 1 µg/mL (≈ 0.469 to 1.88 µM)	200 µg/mL (≈ 375 µM)	12.5 to 400 µg/mL (≈ 23.5 to 751 µM)	≥ 800 µg/mL	> 800 µg/mL	1 to 16 µg/mL (≈ 1.88 to 30 µM)	≤ 0.25 µg/mL	–	–	–	–	–	–	–	–	–	–	CCNC(=O)Nc1nc2cc(-c3cnc(N4CCC(C)(C(=O)O)CC4)nc3)cc(-c3nccnc3C)c2s1 [Compound 84]
0.25 to 1 µg/mL (≈ 0.52 to 2.08 µM)	0.25 to 1 µg/mL (≈ 0.52 to 2.08 µM)	≥ 800 µg/mL	> 800 µg/mL	–	–	1 to 16 µg/mL (≈ 2.08 to 33.3 µM)	≤ 0.25 µg/mL	≥ 800 µg/mL	> 800 µg/mL	–	–	–	–	–	–	–	–	CCNC(=O)Nc1nc2cc(-c3cnc(N4CCC(C)(C(=O)O)CC4)nc3)cc(C3CC3)c2s1 [Compound 87, 1-{5-[7-Cyclopropyl-2-(3-ethyl-ureido)-benzothiazol-5-yl]-pyrimidin-2-yl}-4-methyl-piperidine-4-carboxylic acid]
> 16 µg/mL	> 16 µg/mL	≥ 800 µg/mL	> 800 µg/mL	–	–	> 16 µg/mL	1 to 16 µg/mL (≈ 1.9 to 30.4 µM)	≥ 800 µg/mL	> 800 µg/mL	–	–	–	–	–	–	–	–	CCNC(=O)Nc1nc2cc(-c3cnc(N4CCC(C)(C(=O)O)CC4)nc3)cc(C(=O)N(C)CC)c2s1 [Compound 91, 1-[5-[2-(ethylcarbamoylamino)-7-[ethyl(methyl)carbamoyl]-1,3-benzothiazol-5-yl]pyrimidin-2-yl]-4-methyl-piperidine-4-carboxylic acid]
≤ 0.25 µg/mL	≤ 0.25 µg/mL	6.25 µg/mL (≈ 11.2 µM)	< 12.5 µg/mL	–	–	0.25 to 1 µg/mL (≈ 0.449 to 1.8 µM)	≤ 0.25 µg/mL	–	–	12.5 µg/mL (≈ 22.5 µM)	12.5 to 400 µg/mL (≈ 22.5 to 719 µM)	–	–	–	–	–	–	CCNC(=O)Nc1nc2cc(-c3cnc(N4CCC(C)(C(=O)O)CC4)nc3)cc(-c3cc(C)c(C#N)cn3)c2s1 [Compound 92]
≤ 0.25 µg/mL	≤ 0.25 µg/mL	≥ 800 µg/mL	> 800 µg/mL	–	–	1 to 16 µg/mL (≈ 1.83 to 29.3 µM)	≤ 0.25 µg/mL	–	–	–	–	–	–	–	–	–	–	CCNC(=O)Nc1nc2cc(-c3cnc(N4CCC(CC)(C(=O)O)CC4)nc3)cc(-c3nccc(C)n3)c2s1 [Compound 101]
≤ 0.25 µg/mL	≤ 0.25 µg/mL	≥ 800 µg/mL	> 800 µg/mL	–	–	1 to 16 µg/mL (≈ 1.78 to 28.5 µM)	≤ 0.25 µg/mL	–	–	–	–	–	–	–	–	–	–	CCNC(=O)Nc1nc2cc(-c3cnc(N4CCC(CC)(C(=O)O)CC4)nc3)cc(-c3cc(OC)ccn3)c2s1 [Compound 102]
≤ 0.25 µg/mL	≤ 0.25 µg/mL	12.5 µg/mL (≈ 22.5 µM)	12.5 to 400 µg/mL (≈ 22.5 to 719 µM)	–	–	1 to 16 µg/mL (≈ 1.8 to 28.7 µM)	≤ 0.25 µg/mL	–	–	–	–	–	–	–	–	–	–	CCNC(=O)Nc1nc2cc(-c3cnc(N4CCC(CC)(C(=O)O)CC4)nc3)cc(-c3ncccc3C#N)c2s1 [Compound 104]
0.25 to 1 µg/mL (≈ 0.437 to 1.75 µM)	≤ 0.25 µg/mL	≥ 800 µg/mL	> 800 µg/mL	–	–	1 to 16 µg/mL (≈ 1.75 to 28 µM)	≤ 0.25 µg/mL	≥ 800 µg/mL	> 800 µg/mL	–	–	–	–	–	–	–	–	CCNC(=O)Nc1nc2cc(-c3cnc(N4CCC(CC)(C(=O)O)CC4)nc3)cc(-c3ncnc4[nH]ccc34)c2s1 [Compound 106]
–	–	–	–	–	–	–	–	–	–	–	–	A (“A” activity ≦0.25 μg/mL)	B (“B” activity >0.25 μg/mL-1.0 μg/mL)	≧800 μg/mL	≧800 μg/mL	D (“D” activity >16 μg/mL)	A (“A” activity ≦0.25 μg/mL)	CCNC(=O)Nc1nc2cc(-c3cnc(N4CCC(CC)(C(=O)OCC)CC4)nc3)cc(Br)c2s1 [Compound 107]
≤ 0.25 µg/mL	≤ 0.25 µg/mL	≥ 800 µg/mL	> 800 µg/mL	–	–	1 to 16 µg/mL (≈ 1.88 to 30.1 µM)	≤ 0.25 µg/mL	≥ 800 µg/mL	> 800 µg/mL	–	–	–	–	–	–	–	–	CCNC(=O)Nc1nc2cc(-c3cnc(N4CCC(CC)(C(=O)O)CC4)cn3)cc(-c3ccccn3)c2s1 [Compound 108]
≤ 0.25 µg/mL	≤ 0.25 µg/mL	≥ 800 µg/mL	> 800 µg/mL	–	–	> 16 µg/mL	≤ 0.25 µg/mL	≥ 800 µg/mL	> 800 µg/mL	–	–	–	–	–	–	–	–	CCNC(=O)Nc1nc2cc(-c3cnc(N4CCC(CC)(C(=O)O)CC4)nc3)cc(-c3nccc(OC)n3)c2s1 [Compound 109]
